# Values joined by “and” are separate entries in the source; they are usually repeats but may differ in a detail not shown here. Equal values may be shown once. Read-outs that look alike come from different tables or passages of the source. Marks after values point to notes of the source that are not given here.
# Tests used:
# [1] = tested on: T. tonsurans; assay: Single agent MIC, broth microdilution adapted from CLSI M38-A (Example 1); type: cell-based; settings: Trichophyton tonsurans, range over clinical isolates, N=8, read-out: Cpd 8 MIC
# Description: (§1) A minimum inhibitory concentration (MICx) of a compound such as a HDAC inhibitor or an antifungal agent (or both) is the concentration that reduces growth of a fungus by X %, compared to the growth of the fungus in the absence of the compound.
# (§2) This example describes the in vitro activity of combinations of compounds according to the present invention and antifungal agents against a collection of dermatophytic fungal pathogens. Antifungal susceptibility testing was adapted from the CLSI M38-A broth microdilution method for dermatophytes (NCCLS-M38-A2 2008). Combination testing was performed by checkerboard method (with compound 8 in combination with fluconazole, itraconazole or terbinafine). A total of 30 isolates of 5 different fungal species were tested in the combination test: 6 isolates each of Trichophyton tonsurans, Trichophyton rubrum, Epidermophyton floccosum, Trichophyton mentagrophytes and Microsporum canis. Clinical isolates were obtained by the Laboratory of Dr. M. Ghannoum at Case Western University.
# [2] = tested on: T. rubrum; assay: as above; type: cell-based; settings: Trichophyton rubrum, range over clinical isolates, N=10, read-out: Cpd 8 MIC
# Description: as §1, §2
# [3] = tested on: T. mentagrophytes; assay: as above; type: cell-based; settings: Trichophyton mentagrophytes, range over clinical isolates, N=10, read-out: Cpd 8 MIC
# Description: as §1, §2
# [4] = tested on: E. floccosum; assay: as above; type: cell-based; settings: Epidermophyton floccosum, range over clinical isolates, N=9, read-out: Cpd 8 MIC
# Description: as §1, §2
# [5] = tested on: M. canis; assay: as above; type: cell-based; settings: Microsporum canis, range over clinical isolates, N=7, read-out: Cpd 8 MIC
# Description: as §1, §2
# [6] = tested on: E. floccosum; assay: Checkerboard combination testing of compound 8 with antifungals, FIC (Example 1); type: cell-based, Epidermophyton floccosum; settings: for Additivity # isolates / Additivity isolates (%): 0.5≦FIC≦1.0
# Description: as §2
# (§3) Synergy was assessed using the fractional inhibitory concentration (FIC), an interaction coefficient, with the following definitions:
# (§4) The fold reduction of the itraconazole minimum inhibitory concentration (MIC) was also evaluated.
# [7] = tested on: broad panel of dermatophytic clinical isolates; assay: Single agent MIC, whole panel (Example 1); type: cell-based; settings: range over all species and clinical isolates tested
# Description: as §1, §2
# [8] = tested on: T. tonsurans; assay: Checkerboard combination testing of compound 8 with antifungals, FIC (Example 1); type: cell-based, Trichophyton tonsurans; settings: for Additivity # isolates / Additivity isolates (%): 0.5≦FIC≦1.0; for No Interaction # isolates: 1.0<FIC≦4.0; for Synergy # isolates / Synergy isolates (%): FIC<0.5
# Description: as §2, §3, §4
# [9] = tested on: clinical isolates of Zygomycetes and molds; assay: In vitro synergy with azoles; type: cell-based; settings: majority of clinical isolates
# [10] = tested on: T. rubrum, T. mentagrophytes and T. tonsurans strains; assay: Checkerboard microdilution Compound 8 + fluconazole, all strains (Example 2); type: cell-based; settings: Compound 8 in combination with fluconazole
# Description: (§5) MIC testing was performed according to the modification of the CLSI M38-A2 standard for dermatophytes developed at the Center (CLSI. Reference Method for Broth Dilution Antifungal Susceptibility Testing of Filamentous Fungi; Approved Standard-Second Edition. CLSI document M38-A2 [ISBN 1-56238-668-9]. CLSI, 940 West Valley Road, Suite 1400, Wayne, Pa. 19087-1898 USA, 2008; Ghannoum M A, et al. Intra- and Interlaboratory Study of a Method for Testing the Antifungal Susceptibilities of Dermatophytes. 2004 J Clin Microbiol 42:(7): 2977-2979). Compound 8 and fluconazole were tested in combination using a checkerboard microdilution method. The interaction between Compound 8 and fluconazole was determined by FIC Index, or Fractional Inhibitory Concentration Index, which assigns a numerical value to the interaction of the two antifungals.
# [11] = tested on: T. tonsurans; assay: MIC testing, modified CLSI M38-A2 for dermatophytes (Example 2); type: cell-based
# Description: as §5
# [12] = tested on: T. mentagrophytes; assay: as above; type: cell-based
# Description: as §5
# [13] = tested on: panel of clinical isolates of 5 common dermatophytic fungi; assay: Checkerboard combination testing, whole panel (Example 1); type: cell-based
# Description: as §2
# (§6) Synergy was assessed using the fractional inhibitory concentration (FIC), an interaction coefficient, with the following definitions: […]
# [14] = tested on: M. canis; assay: Checkerboard combination testing of compound 8 with antifungals, FIC (Example 1); type: cell-based, Microsporum canis; settings: Compound 8 in combination with itraconazole, N=5 isolates
# [15] = tested on: T. rubrum; assay: MIC testing, modified CLSI M38-A2 for dermatophytes (Example 2); type: cell-based, Trichophyton rubrum; settings: for MIC50: lowest concentration to inhibit 50% of the strains tested, n = 20
# [16] = tested on: T. mentagrophytes; assay: Checkerboard combination testing of compound 8 with antifungals, FIC (Example 1); type: cell-based, Trichophyton mentagrophytes; settings: n=6 isolates; for Additivity # isolates / Additivity isolates (%): 0.5≦FIC≦1.0; for No Interaction # isolates: 1.0<FIC≦4.0; for Synergy # isolates / Synergy isolates (%): FIC<0.5
# Description: as §2, §6
# [17] = Compound 8 in combination with fluconazole, n=6 isolates
# [18] = Compound 8 in combination with fluconazole, 1.0<FIC≦4.0, n=6 isolates
# [19] = Compound 8 in combination with itraconazole, n=6 isolates
# [20] = Compound 8 in combination with itraconazole, FIC<0.5, n=6 isolates
# [21] = one value per clinical isolate (Strain # 1-6)
# [22] = Compound 8 in combination with itraconazole, N=5 isolates
# [23] = Trichophyton tonsurans, n = 5 strains
# [24] = Trichophyton mentagrophytes, n = 5 strains
# [25] = Compound 8 in combination with fluconazole
# [26] = Compound 8 in combination with itraconazole
compound,measurement,setting,value
O=C(Cc1ccc(CCCCc2ccccc2)cc1)NO [Compound 8],MIC,[1],0.02 to 0.25 µg/mL
same,MIC,[2],0.06 to 0.25 µg/mL
same,MIC,[3],0.12 to 2 µg/mL
same,MIC,[4],0.5 to 1 µg/mL
same,MIC,[5],0.12 to 2 µg/mL
same,Additivity # isolates,[6]; [17],4
same,Additivity isolates (%),[6]; [17],(67%)
same,No Interaction # isolates,[6]; [18],2
same,No Interaction isolates (%),[6]; [18],(33%)
same,Synergy # isolates,"[6]; Compound 8 in combination with fluconazole, FIC<0.5, n=6 isolates",0
same,Additivity # isolates,[6]; [19],2
same,Additivity isolates (%),[6]; [19],(33%)
same,No Interaction # isolates,"[6]; Compound 8 in combination with itraconazole, 1.0<FIC≦4.0, n=6 isolates",0
same,Synergy # isolates,[6]; [20],4
same,Synergy isolates (%),[6]; [20],(67%)
same,Fold Reduction of Itraconazole MIC by Cpd 8,[6]; [21],8x and 4x and 7.5x
same,MIC,[7],0.02 to 2 µg/mL
same,Additivity # isolates,[8]; [17],1
same,Additivity isolates (%),[8]; [17],(17%)
same,No Interaction # isolates,[8]; [17],0
same,Synergy # isolates,[8]; [17],5
same,Synergy isolates (%),[8]; [17],(83%)
same,Additivity # isolates,[8]; [22],4
same,Additivity isolates (%),[8]; [22],(80%)*
same,No Interaction # isolates,[8]; [22],0
same,Synergy # isolates,[8]; [22],1
same,Synergy isolates (%),[8]; [22],(20%)*
same,Fold Reduction of Itraconazole MIC by Cpd 8,[8]; [21],2x and 4x
same,In vitro interaction with azoles,[9],synergy
same,Antagonism,[10],No antagonism was demonstrated
same,"Synergism, % of the strains",[10],23%
same,MIC,"[11]; Trichophyton tonsurans, drug alone, one value per strain (MRL # in c0), read-out: Individual MIC",0.12 µg/mL
same,MIC50,[11]; [23],0.06 µg/mL
same,MIC90,[11]; [23],0.06 µg/mL
same,Antifungal activity as compared with fluconazole,[11]; all strains tested,more potent antifungal activity as compared with fluconazole
same,MIC Range,[11]; n = 5 strains,0.06 to 0.12 µg/mL
same,MIC,"[12]; Trichophyton mentagrophytes, drug alone, one value per strain (MRL # in c0), read-out: Individual MIC",1 µg/mL
same,MIC50,[12]; [24],1 µg/mL
same,MIC90,[12]; [24],1 µg/mL
same,Antifungal activity as compared with fluconazole,[12]; all strains tested,more potent antifungal activity as compared with fluconazole
same,MIC Range,[12]; n = 5 strains,1.0 µg/mL
same,"Synergy, % of the isolate combinations tested","[13]; Compound 8 with fluconazole, 30 isolate combinations",33%
same,"Synergy, number of isolates","[13]; Compound 8 with fluconazole, of 30 isolate combinations tested",10
same,"Synergy, % of the isolate combinations tested","[13]; Compound 8 with itraconazole, 28 isolate combinations",54%
same,"Synergy, number of isolates","[13]; Compound 8 with itraconazole, of 28 isolate combinations tested",15
same,Antagonism,[13]; any of the Compound 8-azole combinations or clinical isolates,Antagonism was not observed
same,Additivity # isolates,[14]; 0.5≦FIC≦1.0,0*
same,No Interaction isolates (%),[14]; 1.0<FIC≦4.0,(80%)*
same,Synergy # isolates,[14]; FIC<0.5,1
same,Synergy isolates (%),[14]; FIC<0.5,(20%)*
same,MIC50,"[15]; Trichophyton rubrum, read-out: MIC50",1 µg/mL
same,MIC90,"[15]; Trichophyton rubrum, n = 20 strains",4 µg/mL
same,MIC50,[15],1 µg/mL
same,MIC Range,[15]; n = 20 strains,0.5 to 4.0 µg/mL
same,Compound 8 MIC compared with the corresponding terbinafine MIC,[15]; nine strains with a terbinafine MIC≧4.0 μg/ml,lower than the corresponding terbinafine MIC for eight of nine strains
same,Additivity # isolates,[16]; [25],4
same,Additivity isolates (%),[16]; [25],(67%)
same,No Interaction # isolates,[16]; [25],0
same,Synergy # isolates,[16]; [25],2
same,Synergy isolates (%),[16]; [25],(33%)
same,Additivity # isolates,[16]; [26],1
same,Additivity isolates (%),[16]; [26],(17%)
same,No Interaction # isolates,[16]; [26],0
same,Synergy # isolates,[16]; [26],5
same,Synergy isolates (%),[16]; [26],(83%)

# Reference: patent US20120046331A1, “Antifungal Agents and Uses Thereof” (priority 2010, published 2012)
